This is an account of results in patent US12060330B2, “Therapeutic indazoles” (priority 2017, dated 2024).

Entries after “also recorded” stand apart in the source; their conditions may differ.

Experiment [1] relates to mycolic acid biosynthesis. The experiment is classed as cell-based, M. tuberculosis.
The test system of experiment [2] is DG167-resistant M. tuberculosis mutants. The experiment is classed as cell-based.

With `CCCCS(=O)(=O)Nc1ccc2cnn(C)c2c1` [DG167, N-(1-methyl-1H-indazol-6-yl)butane-1-sulfonamide], the “inhibition of mycolic acid biosynthesis” value in experiment [1] is listed as “dose-dependent inhibition; also recorded: resistant to DG167-mediated inhibition of mycolic acid biosynthesis”.
On to `NNC(=O)c1ccncc1` [INH, isoniazid, reference compound], for which, in experiment [2], the “susceptibility of DG167-resistant mutants” value (from here on “susceptibility”) was “remained susceptible”.
Still for that read-out and setting: next, `CCc1cc(C(N)=S)ccn1` [ETH, ethionamide]: “remained susceptible”; `CC(C)=CCC/C(C)=C/CNCCNC1C2CC3CC(C2)CC1C3` (stereo not shown) [SQ109]: “remained susceptible”.
In the case of `O=[N+]([O-])c1cn2c(n1)OC[C@@H](OCc1ccc(OC(F)(F)F)cc1)C2` [PA824], the “susceptibility” value in experiment [2] is “remained susceptible”.
As to `CC[C@@H](CO)NCCN[C@@H](CC)CO` [EMB, ethambutol], the “susceptibility” value in experiment [2] was “remained susceptible”.
On the same count and under the same terms, next, `COc1nc2ccc(Br)cc2cc1[C@@H](c1ccccc1)[C@@](O)(CCN(C)C)c1cccc2ccccc12` [BDQ, bedaquiline]: “remained susceptible”.
